Experimental data: patent publication US20140243276A1, “SMAC MIMETIC (BIRINAPANT) FOR USE IN THE TREATMENT OF PROLIFERATIVE DISEASES (CANCER)” (TETRALOGIC PHARMACEUTICALS CORPORATION, priority 2011, published 2014)
Several values for one entry are separate records, joined by “and”; a condition that tells them apart may be missing. Identical values can stand only once. Entries after “also recorded” stand apart in the source; their conditions may differ.

Key:
[1] = tested on: primary pancreatic tumors; test: Patient-derived primary pancreatic cancer explant model
Method: (§1) An additional 6 primary pancreatic tumors were evaluated at 60 mg/kg.

[2] = mouse, in vivo
[3] = Phase 1 safety and tolerability in patients; conditions: for tolerability: patients
[4] = mouse, in vivo; remark: listed apart in the source
MDA-MB-231 xenograft = test: Tumor growth inhibition in MDA-MB-231 xenograft; format: in vivo, mice
[5] = in vivo
[6] = human, in vivo
[7] = tested on: advanced solid tumors and lymphoma; test: Phase 1 anti-tumor activity in patients with refractory solid tumors or lymphoma; format: in vivo, human
[8] = tested on: apoptosis pathway (PARP cleavage, caspase-3/7, cleaved cytokeratin-18); test: Phase 1 apoptosis pathway activation markers in patients; format: in vivo, human
Panc1 = Panc1 immunoblotting and Trypan blue staining, alone and with TRAIL; format: cell-based
[9] = tested on: primary pancreatic tumors; conditions: mouse, in vivo
Method: as §1

[10] = tested on: primary human melanoma tumor xenograft; test: Efficacy in primary human melanoma tumor xenograft models
[11] = 60 mg/kg i.p. twice weekly, 28 days
[12] = patients with solid tumors and lymphoma
[13] = CRC Patient 01-202, dose cohort 0.36 mg/m^2
[14] = CRC Patient 01-801, dose cohort 17.2 mg/m^2
[15] = Melanoma Patient 01-703, dose cohort 11.5 mg/m^2
[16] = TL32711 combined with carboplatin and paclitaxel

SMILES: CC[C@H](NC(=O)[C@H](C)NC)C(=O)N1C[C@@H](O)C[C@H]1Cc1c(-c2[nH]c3cc(F)ccc3c2C[C@@H]2C[C@H](O)CN2C(=O)[C@H](CC)NC(=O)[C@H](C)NC)[nH]c2cc(F)ccc12 [TL32711, N-{1S-[2R-(6,6′-Difluoro-3′-{4S-hydroxy-1-[2S-(2S-methylamino-propionylamino)-butyryl]-pyrrolidin-2R-ylmethyl}-1H,1′H-[2,2′]biindolyl-3-ylmethyl)-4S-hydroxy-pyrrolidine-1-carbonyl]-propyl}-2S-methylamino-propionamide]
- growth inhibition in primary tumor #17624 ([1]; 30 mg/kg i.p. twice weekly): significant growth inhibition
- significant growth inhibition in primary tumor #12872 ([1]; 30 mg/kg i.p. twice weekly): not
- T/C in the 2 primary tumors with suboptimal growth inhibition [1, 11]: ~0.4
- T/C in the 6 primary tumors with significant growth arrest/inhibition [1, 11]: −0.1 to 0.2
- toxicity in the tumor-bearing mice ([1]; all dose levels (30, 45, 60 mg/kg i.p. twice weekly)): No significant toxicity
- dose achieving significant growth inhibition in both #17624 and #12872 ([1]; i.p. twice weekly, dose escalation): >= 45 mg/kg
- half-life in plasma [2]: 20 h
- half-life in tumor [2]: 96 h
- tolerability [3]: well tolerated
- dose-limiting toxicities [3, 12]: no dose-limiting toxicities
- maximum tolerated dose (MTD) [3, 12]: has not been reached
- tolerability ([3]; listed as Compound 15): unexpectedly well tolerated
- tolerability at 63 mg/m^2 ([3]; two patients, 63 mg/m^2 weekly, 3 weeks on/1 week off): not well tolerated
- TL32711 tumor half-life after increase in exposure [4]: 166 h
- TL32711 tumor half-life before increase in exposure [4]: 56 h
- increase in tumor exposure for a 4-fold increase in dose [4]: 14 fold
- cIAP1 inhibition in tumors throughout the dosing interval at which significant tumor growth delay and regressions were observed (MDA-MB-231 xenograft; mice bearing MDA-MB-231 xenograft): > 75%
- doses causing significant tumor growth inhibition and regressions (MDA-MB-231 xenograft; q3D, MDA-MB-231 xenograft): ≥ 2.5 mg/kg
- half-life in the patient ([5]; human): long half-life
- inter-patient variability in Cmax and AUC ([5]; human): moderate to low
- retention (half-life) in tumor tissues ([5]; human): 49 h
- t1/2 in PBMCs ([5]; human): 29 to 35 h
- terminal half-life in plasma ([5]; human): 35 h
- terminal half-life in tumor tissue ([5]; human): 52 h
- plasma terminal t½ ([5]; human, iv): 73 to 79 h
- estimated tumor exposure in patients versus primary human tumor xenograft models in mice [5]: in excess of the measured drug levels
- Fever, Number of Grade 1 or 2 Events (%) [6]: 4 (11%)
- Grade 3 or Grade 4 Adverse Events attributed to study drug [6]: No Grade 3 or Grade 4 Adverse Events attributed to study drug
- Lymphocytopenia, Number of Grade 1 or 2 Events (%) [6]: 2 (6%)
- Nausea, Number of Grade 1 or 2 Events (%) [6]: 5 (14%)
- Rash, Number of Grade 1 or 2 Events (%) [6]: 3 (8%)
- cycles received before disease progression [7, 13]: Patient received 6 cycles (24 weeks) of TL32711 before disease
- metastatic lesions decreased on CT scan after 2 cycles [7, 13]: CT scan; 3 of 5 metastatic lesions decreased after 2 cycles of
- response by RECIST criteria after 2 cycles [7, 13]: TL32711 - Stable Disease by RECIST criteria
- clinical improvement during first 2 cycles [7, 14]: Patient had marked clinical improvement of early satiety and pain
- disease progression after 2 cycles [7, 14]: Patient progressed with development of a new liver lesion after
- patient's CEA after 1 cycle [7, 14]: decreased (150 to 90)
- photopenic lesion developed in a hepatic metastasis after 1 cycle [7, 14]: 4-5 cm
- disease progression [7, 15]: Progressed after 3rd cycle with increasing cutaneous lesions
- response by RECIST criteria after 2 cycles [7, 15]: Stable Disease by RECIST criteria after 2 cycles of TL32711
- anti-tumor activity in patients (overall) ([7]; Phase 1 patients): promising early signs of anti-tumor activity; also recorded: Evidence of anti-tumor activity observed
- PBMC PARD cleavage and plasma caspase-3 activity [8]: dose related increase
- activated serum caspase-3/7 and cleaved cytokeratin-18 levels [8]: dose-related
- pro-apoptotic effect (Panc1; Panc1, TL32711 alone): dose-dependent pro-apoptotic effect
- pro-apoptotic effect with TRAIL co-incubation (Panc1; Panc1, TL32711 with TRAIL): synergized
- cIAP1 degradation and caspase-3 activation (Panc1; Panc1, immunoblotting): rapid cIAP1 degradation leading to caspase-3 activation
- relation of efficacy to tumor drug exposure [9]: efficacy correlated with tumor drug exposure
- anti-tumor activity of biweekly versus weekly dosing schedule ([10]; 15 mg/kg twice/week versus 30 mg/kg once/week, primary melanoma model): did not result in enhanced anti-tumor activity
- models with tumor regressions [10, 16]: 4 of the 6
- reduction in bodyweight (tolerability) [10, 16]: < 14%
- primary melanoma tumor xenografts with significant tumor growth inhibition ([10]; single agent TL32711, 30 mg/kg IP): 5 of 6 and 5/6
